Assay [1] addresses tissue factor/factor VIIa (Homo sapiens, UniProt P08709). Kind of assay: Tissue Factor/Factor VIIa antagonist assay (chromogenic, Ki). It counts as biochemical. As to conditions: 10 nM VIIa, 30 nM TF, Chromozym-tPA 1.33 mM; read-out: binding affinity to serine proteases: VIIa. The protocol: Tissue Factor/Factor VIIa Antagonist Assay
This procedure is used to determine the constant of inhibition (Ki) for a sample compound of the invention.
Procedure • 1. Prepare a solution of 2 μg/mL (90 nM) tissue factor and 1.5 μg/mL (30 nM) factor VIIa in assay buffer with CaCl2. • 2. Incubate for 15 minutes at room temperature. • 3. Add 50 μL sample to each well. • 4. Add 50 μL tissue factor/factor VIIa solution to each well. • 5. Incubate for 15 minutes at room temperature with gentle agitation. • 6. Add 50 μL substrate to each well. • 7. Agitate plate for 20-25 sec. • 8. Monitor absorbance at 405 nm every 10 see for a total of 5 minutes at room temperature. • 9. Calculate Vmax over 10 points.

Assay [2] deals with T1, human Factor Xa (Homo sapiens, UniProt P00742).
T1 construct: This complex converts factor X to Xa
Kind of assay: Factor Xa assay (chromogenic, Ki). It counts as biochemical. As to conditions: 3.3 nM Xa, S-2222 0.5 mM; read-out: binding affinity to serine proteases: Xa. The protocol: Factor Xa, Thrombin, and Plasma Kallikrein Assays
These procedures are used to determine the constant of inhibition (Ki) for a sample compound of the invention.
Procedure • 1. Add 50 μL sample to each well. • 2. Add 50 μL appropriately diluted coagulation factor to each well. • 3. Incubate for 5 minutes at room temperature with gentle agitation. • 4. Add 50 μL appropriately diluted substrate to each well. • 5. Agitate plate for 20-25 sec. • 6. Monitor absorbance at 405 nm every 10 sec for a total of 5 minutes at room temperature. • 7. Calculate Vmax over 10 points.

Among the data in patent publication US6838479B2, “Amidine inhibitors of serine proteases” (Genentech, Inc., priority 2000, dated 2005) are Ki values, retold here.

T1 sequence (P00742 235-488 limits assumed): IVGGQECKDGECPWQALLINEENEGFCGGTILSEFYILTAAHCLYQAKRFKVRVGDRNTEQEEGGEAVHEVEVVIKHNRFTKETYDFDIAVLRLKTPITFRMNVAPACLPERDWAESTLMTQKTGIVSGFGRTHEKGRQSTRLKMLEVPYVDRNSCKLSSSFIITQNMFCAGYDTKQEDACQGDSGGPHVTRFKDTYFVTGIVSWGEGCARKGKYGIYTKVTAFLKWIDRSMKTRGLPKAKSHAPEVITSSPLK
T1 sequence (P00742 41-179 limits assumed): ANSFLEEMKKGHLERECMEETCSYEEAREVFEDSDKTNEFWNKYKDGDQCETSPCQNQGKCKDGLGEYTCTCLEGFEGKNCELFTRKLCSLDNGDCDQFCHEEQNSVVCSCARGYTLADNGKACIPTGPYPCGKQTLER
Sequence of tissue factor/factor VIIa (P08709 213-466 limits assumed): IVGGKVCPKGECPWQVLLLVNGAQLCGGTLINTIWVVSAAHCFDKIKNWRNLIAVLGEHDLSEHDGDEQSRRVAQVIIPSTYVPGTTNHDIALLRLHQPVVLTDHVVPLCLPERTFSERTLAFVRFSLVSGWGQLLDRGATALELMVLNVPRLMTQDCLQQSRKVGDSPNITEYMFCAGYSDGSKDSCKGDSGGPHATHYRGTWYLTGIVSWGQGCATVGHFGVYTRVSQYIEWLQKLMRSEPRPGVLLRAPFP
Sequence of tissue factor/factor VIIa (P08709 61-212 limits assumed): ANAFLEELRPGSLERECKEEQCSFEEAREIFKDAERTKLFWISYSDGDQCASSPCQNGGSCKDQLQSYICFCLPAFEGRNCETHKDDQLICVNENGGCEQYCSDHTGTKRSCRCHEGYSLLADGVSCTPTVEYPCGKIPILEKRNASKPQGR
Sequence of tissue factor/factor VIIa (P13726 33-251 partner limits assumed): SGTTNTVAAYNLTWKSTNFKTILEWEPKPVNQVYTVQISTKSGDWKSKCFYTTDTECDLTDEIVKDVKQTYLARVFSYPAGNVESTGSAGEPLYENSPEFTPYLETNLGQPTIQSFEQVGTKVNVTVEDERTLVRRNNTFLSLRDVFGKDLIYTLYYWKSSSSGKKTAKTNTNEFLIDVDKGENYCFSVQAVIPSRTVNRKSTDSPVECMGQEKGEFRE

`N=C(N)c1cccc(O[C@H]2CN[C@H](C(=O)N3CCC(O)CC3)C2)c1` [compound 57]: the Ki in assay [1] was determined as 312 µM; in assay [2], 49.3 µM.

`N=C(N)c1cccc(O[C@H]2CN[C@H](C(=O)N3CCCCC3CO)C2)c1` (stereo partly drawn) [compound 68]: the Ki in assay [1] was at least 390 µM; in assay [2], 89.6 µM.

Take `N=C(N)c1cccc(O[C@H]2CN[C@H](C(=O)N3CCCC3)C2)c1` [compound 38]: the figures for the Ki in assay [1] and in assay [2] were 129 µM and 21.7 µM, respectively.

Take `N=C(N)c1cccc(O[C@H]2CN[C@H](C(=O)NCCc3ccccc3)C2)c1` [compound 53]: the Ki in assay [1] came to 133 µM; in assay [2], 37.1 µM.

In the case of `N=C(N)c1cccc(O[C@H]2CN[C@H](C(=O)N[C@@H](CCC(=O)O)C(=O)O)C2)c1` [compound 73], the Ki in assay [1] was at least 390 µM; in assay [2], 140 µM.

Regarding `N=C(N)c1cccc(O[C@H]2CN[C@H](C(=O)NC3CCCCC3)C2)c1` [compound 51], in assay [1], the Ki amounted to 234 µM.

Regarding `N=C(N)c1cccc(O[C@H]2CN[C@H](C(=O)N3CCNCC3)C2)c1` [compound 63], the Ki in assay [1] was at least 390 µM; in assay [2], 70 µM.

Take `N=C(N)c1cccc(O[C@H]2CN[C@H](C(=O)Nc3cccc4ccccc34)C2)c1` [compound 33]: the figures for the Ki in assay [1] and in assay [2] were 30.5 µM and 15.5 µM, respectively.

With `N=C(N)c1cccc(O[C@H]2CN[C@H](C(=O)N3CCCC(C(=O)O)C3)C2)c1` (stereo partly drawn) [compound 67], the Ki in assay [1] was at least 390 µM; in assay [2] it was 87.7 µM.

As to `N=C(N)c1cccc(O[C@H]2CN[C@H](C(=O)NCc3ccccc3)C2)c1` [compound 37], the Ki in assay [1] worked out at 312 µM; in assay [2] it was 21.7 µM.

With `N=C(N)c1cccc(O[C@H]2CN[C@H](C(=O)NCCC3CNc4ccccc43)C2)c1` (stereo partly drawn) [compound 12], the Ki came out at 156 µM in assay [1] and 6.02 µM in assay [2].

As to `N=C(N)c1ccc(NC(=O)[C@@H]2C[C@@H](Oc3cccc(C(=N)N)c3)CN2)cc1` [compound 2], the Ki in assay [1] turned out to be 64 µM; in assay [2], 1.15 µM.

Take `CS(=O)(=O)N1C[C@H](Oc2cccc(C(=N)N)c2)C[C@H]1C(=O)O` [compound 81]: the Ki in assay [1] was over 195 µM; in assay [2] it was over 175 µM.

In the case of `C[C@H](NC(=O)[C@@H]1C[C@@H](Oc2cccc(C(=N)N)c2)CN1)C(=O)O` [compound 75], the values for the Ki in assay [1] and in assay [2] were at least 390 µM and 140 µM, respectively.

In the case of `N=C(N)c1cccc(O[C@@H]2C[C@@H](C(=O)O)N(S(=O)(=O)c3ccccc3)C2)c1` [compound 82], the Ki is over 195 µM in assay [1] and over 175 µM in assay [2].

For `C=CCNC(=O)[C@@H]1C[C@@H](Oc2cccc(C(=N)N)c2)CN1` [compound 31], the results for the Ki in assay [1] and in assay [2] were at least 390 µM and 15.2 µM, respectively.

As for `Cc1ccccc1CNC(=O)[C@@H]1C[C@@H](Oc2cccc(C(=N)N)c2)CN1` [compound 39], the results for the Ki in assay [1] and in assay [2] were at least 390 µM and 22.8 µM, respectively.

`C=CCOC(=O)[C@@H]1C[C@@H](Oc2cccc(C(=N)N)c2)CN1S(C)(=O)=O` [compound 78]: the Ki in assay [1] was over 195 µM.

Take `N=C(N)c1cccc(O[C@@H]2C[C@@H](C(=O)O)N(Cc3ccccc3)C2)c1` [compound 70]: the Ki in assay [1] was found to be 156 µM; in assay [2], 105 µM.

With `N=C(N)c1cccc(O[C@H]2CN[C@H](C(=O)N3CCCC(C(N)=O)C3)C2)c1` (stereo partly drawn) [compound 61], in assay [2], the Ki is 62 µM.

For `CC(C)NC(=O)[C@@H]1C[C@@H](Oc2cccc(C(=N)N)c2)CN1` [compound 59], the Ki is at least 390 µM in assay [1] and 59.8 µM in assay [2].

For the compound `CC(C)CCNC(=O)[C@@H]1C[C@@H](Oc2cccc(C(=N)N)c2)CN1` [compound 54], the Ki in assay [1] was at least 390 µM; in assay [2], 38 µM.

Take `COc1ccc(CNC(=O)[C@@H]2C[C@@H](Oc3cccc(C(=N)N)c3)CN2C(=O)c2ccccc2)cc1` [compound 56]: the Ki in assay [1] is over 195 µM; in assay [2] it was 47.3 µM.

Turning to `N=C(N)c1cccc(O[C@H]2CN[C@H](C(=O)NCc3ccc4ccccc4c3)C2)c1` [compound 20], the Ki in assay [1] stood at 234 µM; in assay [2] it was 9.07 µM.

Take `COc1ccc(CNC(=O)[C@@H]2C[C@@H](Oc3cccc(C(=N)N)c3)CN2C(C)=O)cc1` [compound 23]: the Ki in assay [1] is over 195 µM; in assay [2] it was 12 µM.

`N=C(N)c1cccc(O[C@H]2CN[C@H](C(=O)NCc3ccc(N)cc3)C2)c1` [compound 30]: the results for the Ki in assay [1] and in assay [2] were 312 µM and 15.2 µM, respectively.

As to `N=C(N)c1cccc(O[C@H]2CN[C@H](C(=O)NCc3ccccn3)C2)c1` [compound 47], the Ki in assay [1] was at least 390 µM; in assay [2], 31.4 µM.

Regarding `N=C(N)c1cccc(O[C@H]2CN[C@H](C(=O)NCc3cccnc3)C2)c1` [compound 58], the Ki in assay [1] was at least 390 µM; in assay [2], 50.7 µM.

As for `COc1ccc(NC(=O)[C@@H]2C[C@@H](Oc3cccc(C(=N)N)c3)CN2)cc1` [compound 64], the Ki in assay [1] was 273 µM; in assay [2] it was 70.1 µM.

Take `N=C(N)c1cccc(O[C@H]2CN[C@H](C(=O)Nc3ccccc3C(F)(F)F)C2)c1` [compound 43]: the Ki came out at 156 µM in assay [1] and 24.5 µM in assay [2].

As to `N=C(N)c1cccc(O[C@H]2CN[C@H](C(=O)N3CCCC(CO)C3)C2)c1` (stereo partly drawn) [compound 69], the results for the Ki in assay [1] and in assay [2] were 117 µM and 90.2 µM, respectively.

Regarding `Cc1ccccc1NC(=O)[C@@H]1C[C@@H](Oc2cccc(C(=N)N)c2)CN1` [compound 44], the figures for the Ki in assay [1] and in assay [2] were 117 µM and 25.9 µM, respectively.

As to `N=C(N)c1cccc(O[C@H]2CN[C@H](C(=O)N[C@@H](Cc3ccccc3)C(=O)O)C2)c1` [compound 55], the Ki in assay [1] amounted to 273 µM; in assay [2] it was 44.9 µM.

Turning to `N=C(N)c1cccc(O[C@H]2CN[C@H](C(=O)NCc3ccncc3)C2)c1` [compound 71], the Ki is at least 390 µM in assay [1] and 105 µM in assay [2].

Turning to `COc1ccc(CNC(=O)[C@@H]2C[C@@H](Oc3cccc(C(=N)N)c3)CN2S(=O)(=O)c2ccccc2)cc1` [compound 50], the results for the Ki in assay [1] and in assay [2] were over 195 µM and 34.1 µM, respectively.

In the case of `COc1ccc(CNC(=O)[C@@H]2C[C@@H](Oc3cccc(C(=N)N)c3)CN2S(C)(=O)=O)cc1` [compound 48], the Ki in assay [1] is over 195 µM; in assay [2] it was 33.6 µM.

With `N=C(N)c1cccc(O[C@H]2CN[C@H](C(=O)Nc3ccc(F)cc3)C2)c1` [compound 65], the Ki was 30.7 µM in assay [1] and 70.1 µM in assay [2].

As to `C[C@H](NC(=O)[C@@H]1C[C@@H](Oc2cccc(C(=N)N)c2)CN1)c1ccccc1` [compound 46], the Ki in assay [1] is 156 µM; in assay [2], 27 µM.

In the case of `C=CCOC(=O)[C@@H]1C[C@@H](Oc2cccc(C(=N)N)c2)CN1S(=O)(=O)c1ccccc1` [compound 74], the Ki in assay [1] was over 195 µM; in assay [2], 140 µM.

With `N=C(N)c1cccc(O[C@H]2CN[C@H](C(=O)N3CCc4ccccc4C3)C2)c1` [compound 10], the results for the Ki in assay [1] and in assay [2] were 98.5 µM and 5.35 µM, respectively.

Consider `Cc1cccc(CNC(=O)[C@@H]2C[C@@H](Oc3cccc(C(=N)N)c3)CN2)c1` [compound 13], for which the figures for the Ki in assay [1] and in assay [2] were at least 390 µM and 6.12 µM, respectively.

Turning to `N=C(N)c1cccc(O[C@H]2CN[C@H](C(N)=O)C2)c1` [compound 66], the figures for the Ki in assay [1] and in assay [2] were 78 µM and 70.1 µM, respectively.

`C[C@@H](NC(=O)[C@@H]1C[C@@H](Oc2cccc(C(=N)N)c2)CN1)c1ccccc1` [compound 26]: the Ki in assay [1] is 142 µM.

For the compound `CN1CCN(C(=O)[C@@H]2C[C@@H](Oc3cccc(C(=N)N)c3)CN2)CC1` [compound 18], the Ki amounted to 273 µM in assay [1] and 8.87 µM in assay [2].

Regarding `CN(C(=O)[C@@H]1C[C@@H](Oc2cccc(C(=N)N)c2)CN1)c1ccccc1` [compound 40], the Ki in assay [1] amounted to 156 µM; in assay [2], 23 µM.

For the compound `N=C(N)c1cccc(O[C@H]2CN[C@H](C(=O)Nc3ccc(-c4ccccc4)cc3)C2)c1` [compound 28], the Ki in assay [1] is at least 390 µM; in assay [2] it was 14.1 µM.

For the compound `N=C(N)c1cccc(O[C@H]2CN[C@H](C(=O)NC3CCc4ccccc43)C2)c1` (stereo partly drawn) [compound 25], the results for the Ki in assay [1] and in assay [2] were 156 µM and 13.3 µM, respectively.

Turning to `CCCNC(=O)[C@@H]1C[C@@H](Oc2cccc(C(=N)N)c2)CN1` [compound 49], the values for the Ki in assay [1] and in assay [2] were at least 390 µM and 33.8 µM, respectively.

On to `N=C(N)c1cccc(O[C@H]2CN[C@H](C(=O)NCC(=O)O)C2)c1` [compound 77], for which the Ki in assay [1] is over 390 µM.

Regarding `N#Cc1ccc(NC(=O)[C@@H]2C[C@@H](Oc3cccc(C(=N)N)c3)CN2)cc1` [compound 34], the Ki in assay [1] came to 156 µM; in assay [2], 16.8 µM.

In the case of `N=C(N)c1cccc(O[C@H]2CN[C@H](C(=O)NCc3cccc(Cl)c3)C2)c1` [compound 19], the Ki in assay [1] worked out at 312 µM; in assay [2], 9 µM.

For the compound `N=C(N)c1cccc(O[C@H]2CN[C@H](C(=O)Nc3ccc(C(F)(F)F)cc3)C2)c1` [compound 24], the results for the Ki in assay [1] and in assay [2] were 312 µM and 12.9 µM, respectively.
